Calls of active or inactive are those of the source. No cut-off for these calls is given here.

Our source for the Activity and inhibition values is ChEMBL document CHEMBL5370590, “Densely Functionalized Macrocyclic Sesquiterpene Pyridine Alkaloids from Maytenus austroyunnanensis” (J Nat Prod, 2023).

Data set [1] has as its system BV-2. The data set can be described thus: Cytotoxicity against mouse BV-2 cells assessed as reduction in cell viability at 10 uM incubated for 24 hrs by MTT assay. In kind it is toxicity, cell-based. As to conditions: bv-2, 24 h. (In general: Tetrazolium assays rely on reduction of a dye to a coloured formazan, in cell work by metabolically active cells.)
For data set [2], the system named is BV-2. As to the kind of experiment: Inhibition of LPS-induced NO production in mouse BV-2 cells at 10 uM pre-incubated for 2 hrs followed by LPS stimulation and measured after 24 hrs by Griess reagent based method. In kind it is functional, cell-based. The settings on record: time 26.0 hrs.
Data set [3] has as its system BV-2. As to the kind of experiment: Inhibition of LPS-induced NO production in mouse BV-2 cells assessed as NO production at 10 uM pre-incubated for 2 hrs followed by LPS stimulation and measured after 24 hrs by Griess reagent based method relative to control. In kind it is functional. More on the design: scale not given: the % may be the effect or the level left. As to conditions: time 26 hrs. A general note: Griess reagent forms a coloured azo dye with nitrite.

Data set [4] relates to BV-2. The data set can be described thus: Inhibition of LPS-induced NO production in mouse BV-2 cells assessed as NO production at 20 uM pre-incubated for 2 hrs followed by LPS stimulation and measured after 24 hrs by Griess reagent based method relative to control. In kind it is functional. More on the design: scale not given: the % may be the effect or the level left. The settings on record: time 26 hrs.

For `CC(=O)OC[C@]12[C@H](OC(C)=O)C(=O)[C@@H]3[C@@H](OC(C)=O)[C@@]14O[C@@]3(C)COC(=O)c1cccnc1CC[C@@](C)(OC(C)=O)C(=O)O[C@@H]([C@H](OC(=O)c1ccccc1)[C@@H]2OC(C)=O)[C@]4(C)O`, the Activity result in the data set on BV-2 [1] is “Non-Toxic”. In addition, the inhibition result in the data set with BV-2 [2] was “Active”.
The matching figures for `CC(=O)OC[C@]12[C@H](OC(C)=O)[C@@H](OC(C)=O)[C@@H]3[C@@H](OC(C)=O)[C@@]14O[C@@]3(C)COC(=O)c1cccnc1[C@@H](C)[C@H](C)C(=O)O[C@@H]([C@H](OC(C)=O)[C@@H]2OC(C)=O)[C@]4(C)O`: “Non-Toxic” and “Active”.
Consider `CC(=O)OC[C@]12[C@H](OC(C)=O)[C@@H](OC(C)=O)[C@@H]3[C@@H](OC(C)=O)[C@@]14O[C@@]3(C)COC(=O)c1cccnc1[C@@H](C)[C@H](C)C(=O)O[C@@H]([C@H](OC(=O)c1ccc(=O)n(C)c1)[C@@H]2OC(C)=O)[C@]4(C)O`, for which the Activity result in the data set on BV-2 [1] is “Toxic”.
`C/C=C(\C)C(=O)O[C@H]1[C@@H]2[C@@H](OC(C)=O)[C@@]34O[C@@]2(C)COC(=O)c2cnccc2CC[C@@](C)(OC(C)=O)C(=O)O[C@@H]([C@H](OC(C)=O)[C@H](OC(C)=O)[C@@]3(COC(C)=O)[C@@H]1OC(C)=O)[C@]4(C)O`: the Activity entry in the data set with BV-2 [1] is on record as “Non-Toxic”. The inhibition result in the data set with BV-2 [2] is “Active”.
On to `C/C=C(\C)C(=O)O[C@H]1C[C@@H]2[C@@H](OC(=O)c3ccccc3)[C@@]3(OC2(C)C)[C@@]1(COC(C)=O)[C@@H](OC(C)=O)[C@@H](OC(C)=O)C[C@]3(C)O`, for which the Activity result in the data set on BV-2 [1] is “Non-Toxic”; with BV-2 [3], 59.61%. Also, in the data set with BV-2 [2], the inhibition entry was “Active”.
Consider `CC(=O)O[C@H]1C[C@](C)(O)[C@]23OC(C)(C)[C@H](C[C@H](OC(=O)c4cccnc4)[C@]2(CO)[C@H]1OC(C)=O)[C@H]3OC(C)=O`, for which the Activity entry in the data set on BV-2 [1] is “Non-Toxic”.
In the case of `C/C=C(\C)C(=O)O[C@@H]1[C@H](OC(C)=O)[C@@H]2[C@@H](OC(=O)/C(C)=C/C)[C@@]34O[C@@]2(C)COC(=O)c2cccnc2CC[C@H](C)C(=O)O[C@@H]([C@H](O)[C@H](O)[C@@]13COC(C)=O)[C@]4(C)O`, the Activity result in the data set with BV-2 [1] is on record as “Non-Toxic”. Besides, the inhibition entry in the data set with BV-2 [2] was “Active”.
The corresponding values for `C/C=C(\C)C(=O)O[C@@H]1[C@H](OC(C)=O)[C@@]2(COC(C)=O)[C@H](OC(C)=O)C(=O)[C@@H]3[C@@H](O)[C@@]24O[C@@]3(C)COC(=O)c2cccnc2CC[C@@](C)(OC(C)=O)C(=O)O[C@@H]1[C@]4(C)O` are “Non-Toxic” and “Active”.
Regarding `CC(=O)OC[C@]12[C@H](OC(C)=O)C(=O)[C@@H]3[C@@H](OC(C)=O)[C@@]14O[C@@]3(C)COC(=O)c1cccnc1CC[C@@](C)(OC(C)=O)C(=O)O[C@@H]([C@H](OC(=O)c1cccnc1)[C@@H]2OC(C)=O)[C@]4(C)O`, the Activity result in the data set on BV-2 [1] is “Non-Toxic”.
On to `C/C=C(\C)C(=O)O[C@@H]1[C@@H]2[C@@H](OC(C)=O)[C@@]34O[C@@]2(C)COC(=O)c2cnccc2CC[C@@](C)(OC(C)=O)C(=O)O[C@@H]([C@H](OC(=O)/C(C)=C/C)[C@H](OC(C)=O)[C@@]3(COC(C)=O)[C@@H]1OC(C)=O)[C@]4(C)O`, for which, in the data set with BV-2 [1], the Activity result is given as “Non-Toxic”. Further, in the data set on BV-2 [2], the inhibition entry is “Active”.
In the case of `Oc1ccc(/C=C/c2cc(O)cc(O)c2)cc1` [RESVERATROL], in the data set on BV-2 [4], the Activity was determined as 21.38%.
With `C/C=C(\C)C(=O)O[C@@H]1[C@H](OC(C)=O)[C@@]2(COC(C)=O)[C@H](OC(C)=O)C(=O)[C@@H]3[C@@H](OC(C)=O)[C@@]24O[C@@]3(C)COC(=O)c2cccnc2CC[C@@](C)(OC(C)=O)C(=O)O[C@@H]1[C@]4(C)O`, in the data set on BV-2 [1], the Activity entry is given as “Non-Toxic”. In addition, in the data set with BV-2 [2], the inhibition entry was “Active”.
Regarding `C/C=C(\C)C(=O)O[C@H]1[C@@H]2[C@@H](OC(C)=O)[C@@]34O[C@@]2(C)COC(=O)c2cccnc2CC[C@@](C)(OC(C)=O)C(=O)O[C@@H]([C@H](OC(C)=O)[C@H](OC(C)=O)[C@@]3(COC(C)=O)[C@@H]1OC(C)=O)[C@]4(C)O`, in the data set on BV-2 [1], the Activity entry is reported as “Non-Toxic”. Also, in the data set on BV-2 [2], the inhibition entry is “Active”.
